Laboratory results published in patent US20250026741A1, “INHIBITORS OF THE ONCOGENIC SHP2 PHOSPHATASE AND USES THEREOF” (Sanford Burnham Prebys Medical Discovery Institute, priority 2021, published 2025).
pIC50: −log10 of the molar value.

How the values were obtained:
[1] = target: full-length SHP2-E76K oncogenic mutant (Homo sapiens (Human), UniProt Q06124, E76K); assay: DiFMUP fluorescence intensity phosphatase inhibition assay, SHP2-E76K; type: biochemical; conditions: DiFMUP at Km (20 μM), 10-point dose-response; read-out: SHP2-E76K IC50
Sequence of full-length SHP2-E76K oncogenic mutant (Q06124 whole entry E76K, the tested form may be a part): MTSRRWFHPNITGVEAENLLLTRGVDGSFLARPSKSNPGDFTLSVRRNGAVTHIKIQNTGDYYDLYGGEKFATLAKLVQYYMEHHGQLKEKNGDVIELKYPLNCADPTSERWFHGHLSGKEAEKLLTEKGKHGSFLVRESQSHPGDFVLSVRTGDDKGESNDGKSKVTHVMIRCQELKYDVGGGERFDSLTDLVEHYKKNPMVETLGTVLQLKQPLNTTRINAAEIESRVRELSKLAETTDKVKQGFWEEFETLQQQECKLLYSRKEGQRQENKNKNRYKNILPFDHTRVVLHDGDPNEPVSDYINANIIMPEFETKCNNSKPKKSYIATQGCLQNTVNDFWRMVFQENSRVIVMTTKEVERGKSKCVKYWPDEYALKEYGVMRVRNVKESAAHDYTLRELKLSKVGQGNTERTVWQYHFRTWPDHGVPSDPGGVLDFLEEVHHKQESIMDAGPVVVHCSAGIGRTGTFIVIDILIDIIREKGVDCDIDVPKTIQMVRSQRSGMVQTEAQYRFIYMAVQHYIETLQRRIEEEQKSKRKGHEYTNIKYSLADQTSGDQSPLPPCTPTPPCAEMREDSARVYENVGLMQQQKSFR
From the text: (§1) To test the synthesized compounds for their potential to inhibit SHP2 activity, a fluorescence intensity-based assay using 6,8-difluoro-4-methylumbelliferyl phosphate (DiFMUP) as the substrate was adapted for three recombinant SHP2 constructs: 1) the SHP2 catalytic domain (SHP2cat; residues 248-527), 2) the full-length SHP2-E76K oncogenic mutant, and 3) the full-length SHP2 wild-type (SHP2-WT). The recombinant SHP2 proteins were expressed and purified. A dually phosphorylated peptide derived from the insulin receptor substrate 1 (IRS-1) served as a surrogate binding protein and was used to activate SHP2-WT. […] Michaelis-Menten experiments to determine the DiFMUP Michaelis-Menten constant (Kmn) for each SHP2 construct were performed and yielded the following values: SHP2-WT, Km=60 μM; SHP2-E76K, Km=20 μM; SHP2cat, Km=20 μM. Relative maximum rates (Vmax) of the DiFMUP reactions were as follows: SHP2-WT, Vmax=871 AFU/min; SHP2-E76K, Vmax, =2730 AFU/min; SHP2cat, Vmax=2912 AFU/min. IC50 values for each compound were determined from initial rates in 10-point dose-response assays using DiFMUP at a concentration corresponding to its Km value for the respective SHP2 construct.
(§2) SHP2 inhibitors were tested at room temperature (RT) in a 384-well plate format standard phosphatase fluorescence intensity assay using DiFMUP (Invitrogen/Thermo Fisher Scientific, Carlsbad, CA) as a substrate and a total reaction volume of 25 μL. SHP2 inhibitors or vehicle (DMSO) were spotted in triplicate into a black Greiner FLUOTRAC™ 200 384-well microplate (#781076, Greiner) for a 10-point dose-response assay using an Echo®555 Liquid Handler (Labcyte, Inc., San Jose, CA). PTP working solutions were prepared at a 0.625 nM concentration (for a final concentration of 0.5 nM) in buffer containing 50 mM Bis-Tris pH 6.0, 50 mM NaCl, 5 mM DTT, and 0.01% Tween® 20. Prior to the assay, a dually phosphorylated insulin receptor substrate 1 (IRS-1) peptide [625 nM (500 nMfinal) (30)] was added to full-length WT SHP2 working solutions and incubated for 20 min. DiFMUP working solutions at 5× final concentration were prepared in 50 mM Bis-Tris pH 6.0, 50 mMNaCl, and 0.01% Tween 20. 20 μL of PTP working solution was dispensed into the microplate and incubated with inhibitor for 20 min at RT. […] The reaction was initiated by addition of 5 μL DiFMUP working solutions. Fluorescence intensity was measured in kinetic mode (every minute for 7 or 10 min) using a Tecan Spark® Multimode Microplate Reader (Tecan, Groedig, Austria) with an excitation wavelength of 360 nm and an emission wavelength of 460 nm. The initial rates were determined from the linear progression curves of the PTP reaction. The nonenzymatic hydrolysis of the substrate was corrected by using a control without addition of enzyme. IC50 values were calculated from the corrected initial rates by nonlinear regression using the program GraphPad Prism (GraphPad Software, Inc., San Diego, CA) Version 8. Dose-response inhibition assays of SHP2cat using the substrate OMFP were performed similarly as described above for DiFMUP. OMFP was used at a concentration corresponding to its Km value for SHP2cat (50 μM final). Fluorescence intensity was measured in kinetic mode (every minute for 10 min) using a Tecan Spark Multimode Microplate Reader with an excitation wavelength of 485 nm and an emission wavelength of 535 nm. Initial rates were determined and IC50 vales calculated as described above.

[2] = target: full-length SHP2 wild-type (SHP2-WT) (Homo sapiens (Human), UniProt Q06124); assay: DiFMUP fluorescence intensity phosphatase inhibition assay, SHP2-WT activated with IRS-1 peptide; type: biochemical; conditions: DiFMUP at Km (60 μM), IRS-1 peptide activated
From the text: as §1, §2

Structure (SMILES) | pIC50 [1] | pIC50 [2]
O=C1/C(=C/c2ccc(-c3ccc(O)cc3)o2)Sc2ccccc21 [#17, (Z)-2-((5-(4-Hydroxyphenyl)furan-2-yl)methylene)benzo[b]thiophen-3(2H)-one] | 4.00 to 4.70 | ≤ 4.00
O=C(Nc1ccccc1)c1cc(-c2ccc(/C=C3\Sc4ccccc4C3=O)o2)ccc1F [#24, (Z)-2-Fluoro-5-(5-((3-oxobenzo[b]thiophen-2(3H)-ylidene)methyl)furan-2-yl)-N-phenylbenzamide] | ≤ 4.00 | ≤ 4.00
COc1ccc(-c2ccc(/C=C3\Sc4ccccc4C3=O)o2)cc1C(=O)Nc1ccccc1 [#18, (Z)-2-Methoxy-5-(5-((3-oxobenzo[b]thiophen-2(3H)-ylidene)methyl)furan-2-yl)-N-phenylbenzamide] | 4.00 to 4.70 | 4.00 to 4.70
O=C(/C=C/c1ccc(Br)o1)c1cccc(C(=O)/C=C/c2ccc(Br)o2)c1 [#48] | 4.00 to 4.70 | 4.00 to 4.70
O=C(Nc1ccc2ccccc2n1)c1cccc(-c2ccc(/C=C3\Sc4ccccc4C3=O)o2)c1 [#38] | 4.00 to 4.70 | ≤ 4.00
O=C(/C=C/c1ccc(-c2ccc(O)c(C(=O)O)c2)o1)c1ccccc1 [#37] | 4.00 to 4.70 | 4.00 to 4.70
O=C(Nc1ccccc1)c1cccc(-c2ccc(/C=C3\Sc4ccccc4C3=O)o2)c1 [#15, (Z)-3-(5-((3-Oxobenzo[b]thiophen-2(3H)-ylidene)methyl)furan-2-yl)-N-phenylbenzamide] | 4.00 to 4.70 | 4.00 to 4.70
O=C1NC(=O)/C(=C/c2ccc(-c3cccc(C(=O)Nc4ccccc4)c3)o2)S1 [#39] | 4.00 to 4.70 | 4.00 to 4.70
O=C1/C(=C/c2ccc(-c3ccccc3)o2)Sc2ccccc21 [#25, (Z)-2-((5-phenylfuran-2-yl)methylene)benzo[b]thiophen-3(2H)-one] | ≤ 4.00 | ≤ 4.00
O=C(Nc1ccccc1)c1cc(-c2ccco2)ccc1O [#21, 5-(Furan-2-yl)-2-hydroxy-N-phenylbenzamide] | ≤ 4.00 | ≤ 4.00
O=C(NCCO)c1cc(-c2ccc(/C=C3\Sc4ccccc4C3=O)o2)ccc1O [#22, (Z)-2-Hydroxy-N-(2-hydroxyethyl)-5-(5-((3-oxobenzo[b]thiophen-2(3H)-ylidene)methyl)furan-2-yl)benzamide] | ≤ 4.00 | ≤ 4.00
O=C1/C(=C/c2ccc(-c3ccc(O)c(C(=O)N4CCNCC4)c3)o2)Sc2ccccc21 [#19, (Z)-2-((5-(4-Hydroxy-3-(piperazine-1-carbonyl)phenyl)furan-2-yl)methylene)benzo[b]thiophen-3(2H)-one] | 4.00 to 4.70 | ≤ 4.00

The remaining lines, values ahead:

pIC50 [1] | pIC50 [2] | Structure (SMILES)
4.70 to 6.00 | 4.00 to 4.70 | COc1cccc(NC(=O)c2cccc(-c3ccc(/C=C4\Sc5ccccc5C4=O)o3)c2)c1 [#33]
≥ 6.00 | 4.70 to 6.00 | O=C1/C(=C/c2ccc(-c3ccc(O)c(C(=O)O)c3)o2)CC/C1=C\c1ccc(-c2ccc(O)c(C(=O)O)c2)o1 [#44]
4.70 to 6.00 | 4.00 to 4.70 | O=C(Nc1ccccc1)c1cc(F)cc(-c2ccc(/C=C3\Sc4ccccc4C3=O)o2)c1 [#29]
4.70 to 6.00 | 4.70 to 6.00 | O=C(O)c1ccc(-c2ccc(/C=C3\Sc4ccccc4C3=O)o2)cc1 [#28]
4.70 to 6.00 | 4.00 to 4.70 | O=C(O)c1cc(-c2ccc(/C=C3\Sc4ccccc4C3=O)o2)ccc1F [#32]
4.00 to 4.70 | ≤ 4.00 | O=C(NCc1ccccc1)c1cccc(-c2ccc(/C=C3\Sc4ccccc4C3=O)o2)c1 [#16, (Z)—N-Benzyl-3-(5-((3-oxobenzo[b]thiophen-2(3H)-ylidene)methyl)furan-2-yl)benzamide]
4.70 to 6.00 | 4.00 to 4.70 | CC(C)NC(=O)c1cc(-c2ccc(/C=C3\Sc4ccccc4C3=O)o2)ccc1O [#13, (Z)-2-Hydroxy-N-isopropyl-5-(5-((3-oxobenzo[b]thiophen-2(3H)-ylidene)methyl)furan-2-yl)benzamide]
4.70 to 6.00 | 4.70 to 6.00 | CC(C)NC(=O)c1cc(-c2ccc(/C=C3\Oc4ccccc4C3=O)o2)ccc1O [#26]
4.70 to 6.00 | 4.00 to 4.70 | O=C(O)c1cccc(-c2ccc(/C=C3\Cc4ccccc4C3=O)o2)c1 [#34]
